For seven compounds, IC50 results are on record in patent US20250368649A1, “TETRAHYDROPYRIDOPYRIMIDINE PAN-KRAS INHIBITORS” (Mirati Therapeutics, Inc., priority 2022, published 2025).

Test [1] relates to H727 cells. As to the kind of experiment: Inhibition of KRas-mediated phosphorylation of ERK (Cisbio HTRF pERK), H727 cells. It counts as cell-based. To be noted: Homo sapiens, NCI-H727, 3 h, 3 hr compound incubation. A general note: TR-FRET usually uses a lanthanide donor and a delayed reading to cut background.
Test [2] has as its system A549 cells. Briefly: Inhibition of KRas-mediated phosphorylation of ERK (Cisbio HTRF pERK), A549 cells. It counts as cell-based. To be noted: Homo sapiens, A549, 3 h, 3 hr compound incubation.
The test system of test [3] is PSN1 cells. As to the kind of experiment: Inhibition of KRas-mediated phosphorylation of ERK (Cisbio HTRF pERK), PSN1 cells. The format is cell-based. As to conditions: Homo sapiens, PSN1, 3 h, 3 hr compound incubation. A digest of the protocol: (§1)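 Day 1: 6,000 cells/well plated, RPMI + 10% FBS.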
Test [4] relates to H358 cells. As to the kind of experiment: Inhibition of KRas-mediated phosphorylation of ERK (Cisbio HTRF pERK), H358 cells. To be noted: Homo sapiens, NCI-H358, 3 h, 3 hr compound incubation. The format is cell-based.
In test [5] the target is KRas G12R (Homo sapiens, UniProt P01116, G12R). As to the kind of experiment: biochemical. To be noted: Binding to KRas (IC50 nM) G12R, TR-FRET displacement, KRas G12R.
For test [6], the system named is HCT116 cells. Briefly: Inhibition of KRas-mediated phosphorylation of ERK (Cisbio HTRF pERK), HCT116 cells. It counts as cell-based. As to conditions: Homo sapiens, HCT-116, 3 h, 3 hr compound incubation.
The subject of test [7] is ASPC1 cells. Briefly: Inhibition of KRas-mediated phosphorylation of ERK (Cisbio HTRF pERK), ASPC1 cells. It counts as cell-based. To be noted: Homo sapiens, ASPC1, 3 h, AsPC-1 cells; 3 hr compound incubation.
For test [8], the target named is KRas G12V (Homo sapiens, UniProt P01116, G12V). As to the kind of experiment: biochemical. To be noted: Binding to KRas (IC50 nM) G12V, TR-FRET displacement, KRas G12V.
Test [9] concerns the target KRas G12D (Homo sapiens, UniProt P01116, G12D). Briefly: biochemical. As to conditions: Binding to KRas (IC50 nM) G12D, TR-FRET displacement, KRas G12D.
Test [10] deals with MKN1 cells. Briefly: Inhibition of KRas-mediated phosphorylation of ERK (Cisbio HTRF pERK), MKN1 cells. To be noted: Homo sapiens, MKN-1, 3 hr compound incubation. The format is cell-based. A digest of the protocol:
as §1

The test system of test [11] is H460 cells. As to the kind of experiment: Inhibition of KRas-mediated phosphorylation of ERK (Cisbio HTRF pERK), H460 cells. It counts as cell-based. As to conditions: Homo sapiens, NCI-H460, 3 h, 3 hr compound incubation.

KRas G12V, sequence (P01116 1-169 isoform P01116-2 G12V): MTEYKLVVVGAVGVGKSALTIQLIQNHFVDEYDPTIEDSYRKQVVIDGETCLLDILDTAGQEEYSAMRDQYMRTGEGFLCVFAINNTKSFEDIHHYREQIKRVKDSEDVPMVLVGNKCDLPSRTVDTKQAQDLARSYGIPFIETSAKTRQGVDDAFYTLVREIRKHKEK
KRas G12R, sequence (P01116 1-169 isoform P01116-2 G12R): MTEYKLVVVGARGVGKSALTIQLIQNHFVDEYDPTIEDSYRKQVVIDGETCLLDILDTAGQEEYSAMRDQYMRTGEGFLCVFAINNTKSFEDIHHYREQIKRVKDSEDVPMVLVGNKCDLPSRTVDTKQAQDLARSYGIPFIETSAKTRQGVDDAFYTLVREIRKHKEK
KRas G12D, sequence (P01116 1-169 isoform P01116-2 G12D): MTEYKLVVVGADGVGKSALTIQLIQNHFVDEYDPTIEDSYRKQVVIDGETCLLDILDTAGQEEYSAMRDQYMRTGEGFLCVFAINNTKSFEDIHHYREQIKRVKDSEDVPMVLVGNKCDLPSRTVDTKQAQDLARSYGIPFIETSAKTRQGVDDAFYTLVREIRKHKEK

For orientation: IC50 means the concentration at which inhibition is half-maximal. `CCc1c(F)ccc2cc(O)cc(N3CCc4c(nc(OC[C@@]56CCCN5C[C@H](F)C6)nc4N4CCCn5nc(C(=O)N6CC[C@H]7C[C@H]76)cc5C4)C3)c12` [Example 614, ((1R,5S)-2-azabicyclo[3.1.0]hexan-2-yl)(5-(7-(8-ethyl-7-fluoro-3-hydroxynaphthalen-1-yl)-2-(((2R,7aS)-2-fluorotetrahydro-1H-pyrrolizin-7a(5H)-yl)methoxy)-5,6,7,8-tetrahydropyrido[3,4-d]pyrimidin-4-yl)-5,6,7,8-tetrahydro-4H-pyrazolo[1,5-a][1,4]diazepin-2-yl)methanone]: the IC50 in [1] is 10 nM; in [2], 3 nM; in test [3] it was 4070 nM; in [4], 4 nM; in test [5], < 2 nM; in [6], 123 nM. Also, the IC50 was 4 nM in [7]; < 2 nM in test [8]; < 2 nM in test [9]; 5.5 nM in [10]; 40 nM in test [11].
Turning to `CCc1c(F)ccc2cc(O)cc(N3CCc4c(nc(OC[C@@]56CCCN5C[C@H](F)C6)nc4N4CCCn5nc(C(=O)N6C[C@@H]7CCC[C@H]6C7)cc5C4)C3)c12` [Example 615, ((1R,5S)-6-azabicyclo[3.2.1]octan-6-yl)(5-(7-(8-ethyl-7-fluoro-3-hydroxynaphthalen-1-yl)-2-(((2R,7aS)-2-fluorotetrahydro-1H-pyrrolizin-7a(5H)-yl)methoxy)-5,6,7,8-tetrahydropyrido[3,4-d]pyrimidin-4-yl)-5,6,7,8-tetrahydro-4H-pyrazolo[1,5-a][1,4]diazepin-2-yl)methanone], the IC50 in test [1] was 4 nM; in test [2], 15 nM; in test [3] it was 4640 nM; in test [4] it was 6 nM; in test [5], 2 nM; in test [6], 144 nM. The half-maximal inhibitory concentration (IC50) in test [7] is 7 nM; in test [8] it was < 2 nM; in [9], 3 nM; in [10] it was 34.6 nM; in [11], 41 nM.
For `CCc1c(F)ccc2cc(O)cc(N3CCc4c(nc(OC[C@@]56CCCN5C[C@H](F)C6)nc4N4CCCn5nc(C(=O)N6C[C@H]7CCC[C@@H]6C7)cc5C4)C3)c12` [Example 616, ((1S,5R)-6-azabicyclo[3.2.1]octan-6-yl)(5-(7-(8-ethyl-7-fluoro-3-hydroxynaphthalen-1-yl)-2-(((2R,7aS)-2-fluorotetrahydro-1H-pyrrolizin-7a(5H)-yl)methoxy)-5,6,7,8-tetrahydropyrido[3,4-d]pyrimidin-4-yl)-5,6,7,8-tetrahydro-4H-pyrazolo[1,5-a][1,4]diazepin-2-yl)methanone], the IC50 in test [1] is 17 nM; in [2], 24 nM; in test [3], > 10000 nM; in test [4] it was 11 nM; in [5] it was 3 nM; in [6] it was 176 nM. Moreover, the concentration for half-maximal inhibition (IC50) in test [7] was 17 nM; in [8], < 2 nM; in test [9], 4 nM; in test [10], 62.9 nM; in test [11] it was 48 nM.
For `CCc1c(F)ccc2cc(O)cc(N3CCc4c(nc(OC[C@@]56CCCN5C[C@H](F)C6)nc4N4CCCn5nc(C(=O)N6C[C@H]7CO[C@H](C7)C6)cc5C4)C3)c12` [Example 619, ((1S,5R)-6-oxa-3-azabicyclo[3.2.1]octan-3-yl)(5-(7-(8-ethyl-7-fluoro-^3-hydroxynaphthalen-1-yl)-2-(((2R,7aS)-2-fluorotetrahydro-1H-pyrrolizin-7a(5H)-yl)methoxy)-5,6,7,8-tetrahydropyrido[3,4-d]pyrimidin-4-yl)-5,6,7,8-tetrahydro-4H-pyrazolo[1,5-a][1,4]diazepin-2-yl)methanone], the half-inhibitory concentration (IC50) in test [1] is 7 nM; in test [2], 10 nM; in test [3], 1420 nM; in test [4], 1 nM; in [5] it was < 2 nM; in test [6], 69 nM. Also, the IC50 in [7] is 5 nM; in test [8], < 2 nM; in test [9] it was < 2 nM; in test [10], 1.9 nM; in [11], 34 nM.
Consider `CCc1c(F)ccc2cc(O)cc(N3CCc4c(nc(OC[C@@]56CCCN5C[C@H](F)C6)nc4N4CCCn5nc(C(=O)N6C[C@@H]7CO[C@@H](C7)C6)cc5C4)C3)c12` [Example 620, ((1R,5S)-6-oxa-3-azabicyclo[3.2.1]octan-3-yl)(5-(7-(8-ethyl-7-fluoro-3-hydroxynaphthalen-1-yl)-2-(((2R,7aS)-2-fluorotetrahydro-1H-pyrrolizin-7a(5H)-yl)methoxy)-5,6,7,8-tetrahydropyrido[3,4-d]pyrimidin-4-yl)-5,6,7,8-tetrahydro-4H-pyrazolo[1,5-a][1,4]diazepin-2-yl)methanone], for which the half-maximal inhibitory concentration (IC50) is 7 nM in test [1]; 24 nM in [2]; 2670 nM in [3]; 2 nM in test [4]; < 2 nM in test [5]; 111 nM in [6]. In addition, the half-maximal inhibitory concentration (IC50) in test [7] is 6 nM; in test [8], < 2 nM; in test [9], < 2 nM; in test [10], 3.7 nM; in [11] it was 30 nM.
Consider `CCc1c(F)ccc2cc(O)cc(N3CCc4c(nc(OC[C@@]56CCCN5C[C@H](F)C6)nc4N4CCCn5nc(C(=O)N6CC[C@H]7C[C@@H]6CO7)cc5C4)C3)c12` [Example 623, ((1R,5S)-6-oxa-2-azabicyclo[3.2.1]octan-2-yl)(5-(7-(8-ethyl-7-fluoro-3-hydroxynaphthalen-1-yl)-2-(((2R,7aS)-2-fluorotetrahydro-1H-pyrrolizin-7a(5H)-yl)methoxy)-5,6,7,8-tetrahydropyrido[3,4-d]pyrimidin-4-yl)-5,6,7,8-tetrahydro-4H-pyrazolo[1,5-a][1,4]diazepin-2-yl)methanone], for which the half-inhibitory concentration (IC50) in test [1] was 2 nM; in test [2], 5 nM; in [3] it was 1420 nM; in [4] it was 1 nM; in [5], < 2 nM; in test [6], 31 nM. Besides, the 50% inhibitory concentration (IC50) was 1 nM in [7]; < 2 nM in test [8]; < 2 nM in test [9]; 1.6 nM in test [10]; 12 nM in test [11].
Consider `CCc1c(F)ccc2cc(O)cc(N3CCc4c(nc(OC[C@@]56CCCN5C[C@H](F)C6)nc4N4CCCn5nc(C(=O)N6CC[C@@H]7C[C@H]6CO7)cc5C4)C3)c12` [Example 624, ((1 S,5R)-6-oxa-2-azabicyclo[3.2.1]octan-2-yl)(5-(7-(8-ethyl-7-fluoro-3-hydroxynaphthalen-1-yl)-2-(((2R,7aS)-2-fluorotetrahydro-1H-pyrrolizin-7a(5H)-yl)methoxy)-5,6,7,8-tetrahydropyrido[3,4-d]pyrimidin-4-yl)-5,6,7,8-tetrahydro-4H-pyrazolo[1,5-a][1,4]diazepin-2-yl)methanone], for which the IC50 is 6 nM in [1]; 19 nM in test [2]; 2470 nM in [3]; 4 nM in test [4]; < 2 nM in [5]; 66 nM in test [6]. Also, the 50% inhibitory concentration (IC50) was 4 nM in [7]; < 2 nM in test [8]; < 2 nM in test [9]; 10.5 nM in test [10]; 22 nM in test [11].
